Patent US4824834A, “Pyrazolotriazine compounds” (Otsuka Pharmaceutical Company, Limited, priority 1986, dated 1989)

What was measured:
Xanthine oxidase = biological target: T1, Xanthine oxidase (Mus musculus, UniProt Q00519); assay: Xanthine oxidase inhibition (in vitro), mouse small intestine xanthine oxidase solution, HPLC of uric acid; type: biochemical, mouse (ICR strain mice; settings: xanthine substrate, incubated at 37° C. for 5 minutes; HPLC UV 292 nm
T1 construct: The small intestine was homogenized in 4-fold volume of cooled phosphate buffered saline solution (PBS) and then centrifuged; from tissue; host or cells: small intestine of ICR strain mice; dialysed supernatant of a 105,000 g centrifugation
Experimental: (1) Preparation of Xanthine Oxidase Solution
ICR strain mice were decapitated and the small intestine of each mouse was rapidly perfused with cooled physiological saline solution and removed. The small intestine was homogenized in 4-fold volume of cooled phosphate buffered saline solution (PBS) and then centrifuged at 105,000 g for 60 minutes. The supernatant fluid was dialyzed overnight against PBS. The dialyzed solution thus prepared was stored at -20° C. until used.
(2) Preparation of the Solution Containing the Present Compound
The compound of this invention was dissolved in DMSO (200 μl) and 2N NaOH (100 μl), and then PBS was added to prepare a solution (25 ml) containing 10^-3 M of the compound of this invention. This solution was diluted with PBS to prepare solutions containing the compound in the concentration of 10^-4, 10^-5, 10^-6, 10^-7, 10^-8, 10^-9, 10^-10, and 10^-11 M, respectively.
(3) Method for the Measurement
The assay mixture, consisted of the composition mentioned below, was incubated at 37° C. for 5 minutes. The reaction was stopped by heating in boiling water for one minute. Twenty microliters of the supernatant was analyzed by high performance liquid chromatography (HPLC) under the conditions mentioned below.
Xanthine oxidase solution (diluted in 4-folds with PBS): 200 μl
Solution containing the present compound: 200 μl
Column: osmosil packed column (.phi. 4. mm×150 mm, 5C18×300)
(§1) Eluting solution: 10 mM phosphate buffer (pH 6.0)
(§2) Retention time: 2.4 minutes (uric acid)
(4) Percent Inhibition of the Compound Against Xanthine Oxidase
The percent inhibition was calculated by the following equation. [formula]
As to each of the solutions containing the present compound as prepared in the above (2), the percent inhibition was calculted, and IC50 values were obtained from a plot of the percent inhibition against the log of the concentration of the compound of this invention.

uric acid in serum = assay: Lowering effect of test compound on the level of uric acid in serum (in vivo, oral administration); design: species or system mouse (normal male ICR mice); settings: Mus musculus, 4 hours after administration, male ICR mice, suspended in 0.5% CMC-Na, read-out: in vivo Lowering rate (%) of uric acid in serum (in 4 hours)
Experimental: Experiment 2 (In Vivo: Oral Administration)
(1) Animals, Method of Administration and Sampling of Serum
Normal male ICR mice (weighting about 30 g), were provided normal diet and tap water ad libitum. A test compound suspended in 0.5% CMC-Na was administered orally to the mice (each group: 6 mice) in a dose of 5 mg/kg.
(2) Measurement of Amount of Uric Acid in Serum
To the serum (200 μl) was added 10% perchloric acid (100 μl), and the mixture was centrifuged. To the supernatant fluid (100 μl) was added 0.2M Na2 HPO4 (200 μl), and the mixture (20 μl) was analyzed by HPLC to measure the amount of uric acid. The HPLC was carried out under the following conditions.
Column: Cosmosil packed column (.phi. 4.6 mm×150 mm, 5C18 -300)
as §1, §2
(3) Lowering Effect of Test Compound on the Level of Uric Acid in Serum
The lowering rate of uric acid in serum was calculated by the following equation. [formula]

T1 sequence (Q00519 whole entry): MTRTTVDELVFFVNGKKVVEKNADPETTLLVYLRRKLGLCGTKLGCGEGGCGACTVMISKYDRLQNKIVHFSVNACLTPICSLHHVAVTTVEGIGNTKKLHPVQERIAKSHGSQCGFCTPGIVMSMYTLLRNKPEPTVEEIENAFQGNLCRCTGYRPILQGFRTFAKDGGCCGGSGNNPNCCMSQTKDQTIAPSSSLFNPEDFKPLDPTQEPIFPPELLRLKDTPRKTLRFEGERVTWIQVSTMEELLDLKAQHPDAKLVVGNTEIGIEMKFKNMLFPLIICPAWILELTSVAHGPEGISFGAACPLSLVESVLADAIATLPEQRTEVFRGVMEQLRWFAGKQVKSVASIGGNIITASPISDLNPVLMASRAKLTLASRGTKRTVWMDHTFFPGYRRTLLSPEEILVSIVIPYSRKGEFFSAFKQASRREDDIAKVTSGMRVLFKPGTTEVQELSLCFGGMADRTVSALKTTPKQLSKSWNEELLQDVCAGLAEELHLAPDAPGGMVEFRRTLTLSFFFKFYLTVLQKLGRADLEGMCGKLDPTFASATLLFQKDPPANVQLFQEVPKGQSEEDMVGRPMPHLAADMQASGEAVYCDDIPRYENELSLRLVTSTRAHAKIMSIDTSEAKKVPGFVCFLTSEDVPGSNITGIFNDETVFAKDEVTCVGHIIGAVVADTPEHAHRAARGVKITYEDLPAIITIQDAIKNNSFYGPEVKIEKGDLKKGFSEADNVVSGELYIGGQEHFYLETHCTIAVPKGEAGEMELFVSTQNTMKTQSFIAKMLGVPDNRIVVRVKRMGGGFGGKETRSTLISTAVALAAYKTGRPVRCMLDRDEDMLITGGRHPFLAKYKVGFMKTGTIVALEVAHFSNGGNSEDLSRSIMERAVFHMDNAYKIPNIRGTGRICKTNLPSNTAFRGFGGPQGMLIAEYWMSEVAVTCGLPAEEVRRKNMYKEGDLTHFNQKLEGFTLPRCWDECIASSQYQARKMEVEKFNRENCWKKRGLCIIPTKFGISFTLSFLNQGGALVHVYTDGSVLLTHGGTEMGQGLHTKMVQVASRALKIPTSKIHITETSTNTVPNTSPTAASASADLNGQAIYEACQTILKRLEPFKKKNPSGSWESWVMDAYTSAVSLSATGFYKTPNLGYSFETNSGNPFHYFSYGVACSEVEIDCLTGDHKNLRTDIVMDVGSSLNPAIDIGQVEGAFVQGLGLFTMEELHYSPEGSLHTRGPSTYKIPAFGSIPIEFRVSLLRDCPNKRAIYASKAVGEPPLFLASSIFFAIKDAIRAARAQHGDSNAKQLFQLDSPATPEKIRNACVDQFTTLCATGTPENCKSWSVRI

Row | SMILES | IC50 (Xanthine oxidase) [nM] | inhibition in vivo at 5 mg/kg (uric acid in serum) [%]
1 | Cc1cc(-c2cnn3c(O)ncnc23)ccc1[S+]([O-])c1ccccc1 (stereo not shown) [Example 171, 4-Hydroxy-8-(3-methyl-4-phenylsulfinylphenyl)pyrazolo[1,5-a]-1,3,5-triazine] | 2.4 | 73.6
2 | COc1cc(-c2cnn3c(O)ncnc23)ccc1[S+]([O-])c1ccccc1 (stereo not shown) [Example 187, 4-Hydroxy-8-(3-methoxy-4-phenylsulfinylphenyl)pyrazolo[1,5-a]-1,3,5-triazine] | 25 | 63.9
